Values after ≈ are worked out from the molar mass of the structure shown. Where two headings read alike, the source gives them in different places. Marks after values point to notes of the source that are not given here.
Experiments:
[1] = tested on: lipopolysaccharide-induced mouse acute lung injury model; assay: Lipopolysaccharide-induced mouse acute lung injury model; assay type: in vivo, Balb/c mice; conditions: for LDH Activity in Lung / MPO Activity in Lung / MPO Content in Lung / Lung Tissue Dry-to-wet Ratio: 24 h after LPS; for Lung Tissue Dry-to-wet Ratio: mean ± SD
Experimental: Experimental method: the mice were acclimatized for 72 hours in an SPF animal room with constant temperature and constant humidity after purchase. The mice were randomly divided into four groups, that is, a blank control group (n=10), a model control group (n=10), a positive control medicine naringin group (n=11) and a p-hydroxyphenylpropionic acid group (n=11). The naringin group (180 mg/kg) and the p-hydroxyphenylpropionic acid group (51.6 mg/kg) were continuously subjected to intragastric administration once a day, for three days respectively; and the blank control group and the model control group were administered intragastrically with equivoluminal normal saline. The mice were anesthetized through intraperitoneal injection of 0.5 ml of pentobarbital sodium (65 mg/kg) three hours after the last intragastric administration. For the mice in the model group, the naringin group and the p-hydroxyphenylpropionic acid group, 50 μl of lipopolysaccharide 055:B5 solution (0.8 mg/ml) was slowly instilled into the nasal cavities of the mice until being completely absorbed, and a mouse acute lung injury model was established. The mice in the blank control group received nasal drops of the equivoluminal normal saline. The mice were killed by a cervical vertebra dislocation method 24 hours after the lipopolysaccharide modeling was performed, and the whole lung tissue of the mice was collected and put into a sterile centrifugal tube and was stored in liquid nitrogen within 30 seconds. After the lung tissue stored in the liquid nitrogen was placed at room temperature for 30 minutes, a wet weight was weighed. A drying vessel was dried at 80° C. for 24 hours and then was taken out and placed at room temperature for weighing. Then, the drying vessel was taken out after 1 hour of constant weight at 80° C. and was placed at room temperature for weighing. After the weight of the drying vessel was constant, the lung tissue was placed in the drying vessel, was dried at 80° C. for 48 hours and taken out, and was placed at room temperature for weighing. Then, the drying vessel was taken out after 1 hour of constant weight at 80° C. and was placed at room temperature for weighing. […] [formula] [formula] 24 hours after the lipopolysaccharide modeling was performed, the mice were killed and about 400 mg of lung tissue was collected. 1 ml of PBS-10% Triton was added into the lung tissue to serve as a lysis solution for homogenization. After the protein concentration was measured by a BCA protein concentration kit, the sample loading quantity was adjusted to 50 μg of total protein and 100 μl of total volume, and the content of myeloperoxidase (MPO), the activity of the MPO and the activity of lactic dehydrogenase (LDH) in the lung tissue sample were measured by kits. The data in the table are presented as mean±standard deviation, and analysis of difference among multiple groups is realized by a one-way analysis of variance Beforroni method and SPSS 22.0 software.

chronic smoked mice = assay: Chronic lung injury caused by smoking (chronic smoked mice); assay type: in vivo, Balb/c mice; conditions: for Cchord / FEV50/FVC: 8 weeks smoking; for Lymphocyte count of alveolar lavage fluid / Monocyte count of alveolar lavage fluid / Neutrophil count of alveolar lavage fluid: BALF; for IL-1β in lung tissue / IL-6 in lung tissue / IL-18 in lung tissue / LTB4 in lung tissue / TNF-α in lung tissue: lung tissue homogenate, ELISA
Klebsiella pneumoniae = assay: Antibacterial experiment in vitro, broth microdilution (CLSI); assay type: cell-based; conditions: 20 h, 20-hour cultivation at 37° C.
Staphylococcus aureus = assay: as above; assay type: cell-based; conditions: 20-hour cultivation at 37° C.
[2] = 180 mg/kg intragastric once a day for three days
[3] = 51.6 mg/kg intragastric once a day for three days
[4] = high-dose 60 mg/kg intragastric

C[C@@H]1O[C@@H](O[C@H]2[C@H](Oc3cc(O)c4c(c3)O[C@H](c3ccc(O)cc3)CC4=O)O[C@H](CO)[C@@H](O)[C@@H]2O)[C@H](O)[C@H](O)[C@H]1O [Naringin, naringin]
LDH Activity in Lung [1, 2]: 310.93 ± 27.77 units/gprot
MPO Activity in Lung [1, 2]: 1.913 ± 0.262 units/gprot
MPO Content in Lung [1, 2]: 415.85 ± 52.15 pg/mL
Lung Tissue Dry-to-wet Ratio [1, 2]: 5.15 ± 0.47
Effect on lung inflammation, pulmonary edema, neutrophil infiltration and cell necrosis in ALI (in words) ([1]; 180 mg/kg intragastric, P<0.01 vs model control): effectively inhibit the progress of lung inflammation in the ALI and alleviate pulmonary edema, local neutrophil infiltration and cell necrosis

O=C(O)CCc1ccc(O)cc1 [HPPA, p-Hydroxyphenylpropionic acid]
LDH Activity in Lung [1, 3]: 271.19 ± 27.70 ## units/gprot
MPO Activity in Lung [1, 3]: 1.756 ± 0.190 ## units/gprot
MPO Content in Lung [1, 3]: 324.09 ± 36.33 ## pg/ml
Lung Tissue Dry-to-wet Ratio [1, 3]: 4.90 ± 0.52
Cchord (chronic smoked mice; [4]): 0.041 ± 0.0029 mL/cm H2O
FEV50/FVC (chronic smoked mice; [4]): 0.333 ± 0.040
Lymphocyte count of alveolar lavage fluid (chronic smoked mice; [4]): 1.014 ± 0.107# 10^5/mL
Monocyte count of alveolar lavage fluid (chronic smoked mice; [4]): 3.100 ± 0.554## 10^5/mL
Neutrophil count of alveolar lavage fluid (chronic smoked mice; [4]): 0.743 ± 0.190## 10^5/mL
IL-1β in lung tissue (chronic smoked mice; [4]): 35.27 ± 6.509 pg/mL
IL-6 in lung tissue (chronic smoked mice; [4]): 1027 ± 90.56 pg/mL
IL-18 in lung tissue (chronic smoked mice; [4]): 157.4 ± 9.098 pg/mL
LTB4 in lung tissue (chronic smoked mice; [4]): 7241 ± 1024 pg/mL
TNF-α in lung tissue (chronic smoked mice; [4]): 92.45 ± 13.24 pg/mL
Cchord (chronic smoked mice; low-dose 15 mg/kg intragastric): 0.0448 ± 0.0041 mL/cm H2O
FEV50/FVC (chronic smoked mice; low-dose 15 mg/kg intragastric): 0.360 ± 0.039
Lymphocyte count of alveolar lavage fluid (chronic smoked mice; low-dose 15 mg/kg intragastric): 1.317 ± 0.117 10^5/mL
Monocyte count of alveolar lavage fluid (chronic smoked mice; low-dose 15 mg/kg intragastric): 3.871 ± 0.544 10^5/mL
Neutrophil count of alveolar lavage fluid (chronic smoked mice; low-dose 15 mg/kg intragastric): 1.129 ± 0.287 10^5/mL
IL-1β in lung tissue (chronic smoked mice; low-dose 15 mg/kg intragastric): 47.18 ± 6.822 pg/mL
IL-6 in lung tissue (chronic smoked mice; low-dose 15 mg/kg intragastric): 1483 ± 300.3 pg/mL
IL-18 in lung tissue (chronic smoked mice; low-dose 15 mg/kg intragastric): 180.1 ± 6.667 pg/mL
LTB4 in lung tissue (chronic smoked mice; low-dose 15 mg/kg intragastric): 8344 ± 1356#^ pg/mL
TNF-α in lung tissue (chronic smoked mice; low-dose 15 mg/kg intragastric): 126.3 ± 10.34 pg/mL
MIC (Klebsiella pneumoniae; strain K11): 64 µg/mL (≈ 385 µM)
MIC (Klebsiella pneumoniae; Klebsiella pneumoniae, strain K1): 128 µg/mL (≈ 770 µM)
MIC (Klebsiella pneumoniae; Klebsiella pneumoniae, strain K2): 128 µg/mL (≈ 770 µM)
MIC (Klebsiella pneumoniae; Klebsiella pneumoniae, strain K3): 128 µg/mL (≈ 770 µM)
MIC (Klebsiella pneumoniae; Klebsiella pneumoniae, strain K4): 128 µg/mL (≈ 770 µM)
MIC (Klebsiella pneumoniae; Klebsiella pneumoniae, strain K5): 128 µg/mL (≈ 770 µM)
MIC (Klebsiella pneumoniae; Klebsiella pneumoniae, strain K6): 64 µg/mL (≈ 385 µM)
MIC (Klebsiella pneumoniae; Klebsiella pneumoniae, strain K7): 128 µg/mL (≈ 770 µM)
MIC (Klebsiella pneumoniae; Klebsiella pneumoniae, strain K8): 64 µg/mL (≈ 385 µM)
MIC (Klebsiella pneumoniae; Klebsiella pneumoniae, strain K9): 64 µg/mL (≈ 385 µM)
MIC (Klebsiella pneumoniae; Klebsiella pneumoniae, strain K10): 64 µg/mL (≈ 385 µM)
MIC (Klebsiella pneumoniae; Klebsiella pneumoniae, strain K12): 64 µg/mL (≈ 385 µM)
MIC (Staphylococcus aureus; Staphylococcus aureus, strain S4, read-out: MIC): 64 µg/mL (≈ 385 µM)
MIC (Staphylococcus aureus; strain S1): 64 µg/mL (≈ 385 µM)
MIC (Staphylococcus aureus; strain S2): 64 µg/mL (≈ 385 µM)
MIC (Staphylococcus aureus; strain S3): 64 µg/mL (≈ 385 µM)
MIC (Staphylococcus aureus; strain S5): 64 µg/mL (≈ 385 µM)
MIC (Staphylococcus aureus; strain S6): 64 µg/mL (≈ 385 µM)
MIC (Staphylococcus aureus; strain S7): 64 µg/mL (≈ 385 µM)
MIC (Staphylococcus aureus; strain S8): 64 µg/mL (≈ 385 µM)
MIC (Staphylococcus aureus; strain S9): 64 µg/mL (≈ 385 µM)
MIC (Staphylococcus aureus; strain S10): 64 µg/mL (≈ 385 µM)

O=C(Nc1c(Cl)cncc1Cl)c1ccc(OC(F)F)c(OCC2CC2)c1 [Roflumilast, roflumilast, reference compound]
Cchord (chronic smoked mice; 5 mg/kg intragastric): 0.042 ± 0.0054 mL/cm H2O
FEV50/FVC (chronic smoked mice; 5 mg/kg intragastric): 0.367 ± 0.042
Lymphocyte count of alveolar lavage fluid (chronic smoked mice; 5 mg/kg intragastric): 0.914 ± 0.227## 10^5/mL
Monocyte count of alveolar lavage fluid (chronic smoked mice; 5 mg/kg intragastric): 3.014 ± 0.319## 10^5/mL
Neutrophil count of alveolar lavage fluid (chronic smoked mice; 5 mg/kg intragastric): 0.729 ± 0.180## 10^5/mL
IL-1β in lung tissue (chronic smoked mice; 5 mg/kg intragastric): 34.02 ± 7.098 pg/mL
IL-6 in lung tissue (chronic smoked mice; 5 mg/kg intragastric): 963.2 ± 188.8 pg/mL
IL-18 in lung tissue (chronic smoked mice; 5 mg/kg intragastric): 143.4 ± 18.34 pg/mL
LTB4 in lung tissue (chronic smoked mice; 5 mg/kg intragastric): 6809 ± 670.8 pg/mL
TNF-α in lung tissue (chronic smoked mice; 5 mg/kg intragastric): 102.4 ± 17.34 pg/mL

From patent US20220362186A1, “Application of p-Hydroxyphenylpropionic Acid to Prepare Medicine for Preventing and Treating Respiratory Tract Infection” (SUN YAT-SEN UNIVERSITY, priority 2020, published 2022)
